Data from patent publication US10906946B2, “Thrombin inhibitors” (priority 2015, dated 2021).
“And” between values parts separate entries of the source, which are not always exact repeats. Equal values may be shown once. Read-outs that look alike come from different tables or passages of the source. Ends that are not written are not given here. Peptide text beside a SMILES is read from it.

Target: T1, human α-thrombin (Homo sapiens, UniProt P00734)
T1 construct: residues in the termini of the light chain; purchased Chemo-Sero-Therapeutic Research Institute (Kaketsuken, Japan), as a gift, not bought
Assay: Thrombin amidolytic activity assay with chromogenic substrate S2238
Type: biochemical
Details: for Hill slope of thrombin amidolytic inhibition: 0 min pre-incubation where stated; for Hill Slope: Table 2; for Ki: various S2238 concentrations
Experimental: Thrombin amidolytic activity assays for all peptides were performed in 96-wells microtiter plates in 50 mM Tris buffer (pH 7.4) containing 100 mM NaCl and 1 mg/ml bovine serum albumin. […] The rates of formation of p-nitroaniline were followed by measuring the absorbance at 405 nm for 10 min with a Tecan InfinitePro M200 microplate reader from Tecan (Männedorf, Switzerland). Dose-response curves were fitted using the GraphPad Prizm software (San Diego, Calif., USA) to calculate IC50 values and Hill coefficients. To measure the inhibitory constants, different concentrations of S2238 were used and the residual velocities were determined using the Morrison's tight binding equation. Inhibition of thrombin fibrinogenolytic activity of peptides were tested by measuring absorbance at 650 nm using a Sunrise microplate reader from Tecan (Männedorf, Switzerland) as described previously [Koh C Y, et al., J Biol Chem 282: 29101-13 (2007)]. The selectivity of avathrin was examined against 13 serine proteases (FIG. 5). Effects of avathrin on the amidolytic activities of these serine proteases were determined using respective chromogenic substrates. […] Avathrin (150 μM) was incubated with thrombin (5 μM), in 50 mM Tris buffer (pH 7.4) containing 150 mM NaCl and 1 mg/ml BSA. After different incubation times, reactions were quenched with 1% TFA (pH 1.8) and loaded onto a Jupiter Proteo column (4 μm, 90 Å, 100×1.0 mm) attached to a Dionex nano-HPLC system from Thermo Fisher Scientific (Waltham, Mass., USA) and eluted using an acetonitrile gradient with 0.05% TFA and 99.95% MilliQ water as eluent A and 0.05% TFA, 19.95% MilliQ water and 80% ACN as eluent B. Masses of all peaks were measured to identify cleavage products, which were subsequently quantified by integrating the peaks and calculating the area under the curves. To measure the effect of different pre-incubation times on the thrombin inhibitory activity, amidolytic assays were performed for various incubation times (up to 36 h).

[1] = IC50 of inhibition of thrombin amidolytic activity, thrombin 0.81 nM, S2238 100 μM, without pre-incubation (0 min) where stated
[2] = inhibitory constant Ki for thrombin, thrombin 0.81 nM
[3] = IC50 (nM), Table 4, members of variegin family

For CC[C@H](C)[C@H](NC(=O)[C@H](CCCCN)NC(=O)[C@@H]1CCCN1C(=O)[C@@H](NC(=O)[C@H](C)NC(=O)[C@@H](NC(=O)[C@H](CCC(N)=O)NC(=O)[C@H](Cc1c[nH]cn1)NC(=O)CNC(=O)CNC(=O)[C@@H](N)CO)[C@@H](C)O)C(C)C)C(=O)N[C@@H](Cc1c[nH]cn1)C(=O)N[C@@H](CCCCN)C(=O)N[C@@H](CCC(N)=O)C(=O)NCC(=O)N[C@@H](CC(C)C)C(=O)NCC(=O)NCC(=O)N[C@@H](CC(=O)O)C(=O)N[C@@H](Cc1ccccc1)C(=O)N[C@@H](CCC(=O)O)C(=O)N[C@@H](CCC(=O)O)C(=O)N[C@H](C(=O)N1CCC[C@H]1C(=O)N[C@@H](CO)C(=O)N[C@@H](CC(=O)O)C(=O)N[C@@H](CCC(=O)O)C(=O)N[C@H](C(=O)N[C@H](C(=O)N[C@@H](CCC(=O)O)C(=O)O)[C@@H](C)CC)[C@@H](C)CC)[C@@H](C)CC [Peptide S12H] (H-SGGHQTAVPKIHKQGLGGDFEEIPSDEIIE-OH; N-terminus and C-terminus assumed), the “fold drop in potency compared with avathrin” value (“fold drop in potency” below) was 2 fold, the “Hill slope of thrombin amidolytic inhibition” value was 0.88±0.02 and the IC50 [1] was 18.5 ± 0.32 nM. The “Hill Slope” value was 0.88 ± 0.02 and the Ki [2] was 1.23 ± 0.04 nM.
In the case of “ELESGDEDSEGGDSQSSPTESAAPRLHQREGGGGDFENVEYDQDQK [Amblyomma maculatum]”, the IC50 [3] is reported as 130 ± 1.74 nM.
With “TGSDDDDEYDMYESDGDSNEGNDNDEFETAVPRLPNPNSGRDSEHIPMPVN [Hyalomma marginatum rufipes]” the IC50 [3] was 32.5 ± 3.94 nM and the Ki [2] was 6.13 ± 0.39 nM.
With CC[C@H](C)[C@H](NC(=O)[C@H](CCCCN)NC(=O)[C@@H]1CCCN1C(=O)[C@@H](NC(=O)[C@H](C)NC(=O)[C@@H](NC(=O)[C@H](CC(=O)O)NC(=O)[C@H](Cc1c[nH]cn1)NC(=O)CNC(=O)[C@H](CC(=O)O)NC(=O)[C@@H](N)CO)[C@@H](C)O)C(C)C)C(=O)N[C@@H](CO)C(=O)N[C@@H](CCCCN)C(=O)N[C@@H](CCC(N)=O)C(=O)NCC(=O)N[C@@H](CC(C)C)C(=O)NCC(=O)NCC(=O)N[C@@H](CC(=O)O)C(=O)N[C@@H](Cc1ccccc1)C(=O)N[C@@H](CCC(=O)O)C(=O)N[C@@H](CCC(=O)O)C(=O)N[C@H](C(=O)N1CCC[C@H]1C(=O)N[C@@H](CO)C(=O)N[C@@H](CC(=O)O)C(=O)N[C@@H](CCC(=O)O)C(=O)N[C@H](C(=O)N[C@H](C(=O)N[C@@H](CCC(=O)O)C(=O)O)[C@@H](C)CC)[C@@H](C)CC)[C@@H](C)CC [G2D, Q5D] (H-SDGHDTAVPKISKQGLGGDFEEIPSDEIIE-OH) the “fold drop in potency” value was < 2 fold, the “Hill slope of thrombin amidolytic inhibition” value was 0.71±0.03 and the IC50 [1] was 13 ± 1.23 nM. The “Hill Slope” value was 0.71 ± 0.03.
CC[C@H](C)[C@H](NC(=O)[C@H](C)NC(=O)[C@H](CC(=O)O)NC(=O)[C@H](CC(=O)O)NC(=O)[C@@H]1CCCN1C(=O)[C@@H](NC(=O)[C@H](CCC(=O)O)NC(=O)[C@H](CCC(=O)O)NC(=O)[C@H](Cc1ccccc1)NC(=O)[C@H](CC(=O)O)NC(=O)CNC(=O)[C@@H]1CCCN1C(=O)[C@@H]1CCCN1C(=O)[C@H](C)NC(=O)[C@@H](NC(=O)[C@H](CO)NC(=O)[C@H](Cc1ccc(O)cc1)NC(=O)[C@@H](N)CCSC)[C@@H](C)O)[C@@H](C)CC)C(=O)N[C@@H](CCC(=O)O)C(=O)N[C@@H](CCC(=O)O)C(=O)O [UV011] (H-MYSTAPPGDFEEIPDDAIEE-OH) was tested, and the “fold better Ki than avathrin C-terminal cleavage product IS20” value was “around 4 fold”, the “fold better Ki than variegin C-terminal cleavage product MH22” value was “around 10 fold” and the IC50 [1] was 1.66 ± 0.77 nM. The Ki [2] was 1.39 ± 0.23 nM.
CC[C@H](C)[C@H](NC(=O)[C@H](C)NC(=O)[C@H](CCCNC(=N)N)NC(=O)[C@@H](NC(=O)[C@H](C)NC(=O)[C@H](CCC(=O)O)NC(=O)[C@H](CC(=O)O)NC(=O)[C@@H](N)CO)C(C)C)C(=O)N1CCC[C@H]1C(=O)N[C@@H](CCCCN)C(=O)N[C@@H](CCSC)C(=O)N[C@@H](Cc1ccc(O)cc1)C(=O)N[C@@H](CO)C(=O)N[C@H](C(=O)N[C@@H](C)C(=O)N1CCC[C@H]1C(=O)N1CCC[C@H]1C(=O)NCC(=O)N[C@@H](CC(=O)O)C(=O)N[C@@H](Cc1ccccc1)C(=O)N[C@@H](CCC(=O)O)C(=O)N[C@@H](CCC(=O)O)C(=O)N[C@H](C(=O)N1CCC[C@H]1C(=O)N[C@@H](CCC(=O)O)C(=O)N[C@@H](CCC(=O)O)C(=O)N[C@@H](Cc1ccc(O)cc1)C(=O)N[C@@H](CC(C)C)C(=O)N[C@@H](CC(=O)O)C(=O)N[C@@H](CC(=O)O)C(=O)N[C@@H](CCC(=O)O)C(=O)N[C@@H](CO)C(=O)O)[C@@H](C)CC)[C@@H](C)O [UV005] was tested, and the “fold drop in affinity for thrombin compared to ultravariegin” value was “around 3.6 fold”, the IC50 (IC50 of inhibition of thrombin amidolytic activity, FIG. 17 legend) was 0.91 ± 0.47 nM and the Ki [2] was 0.016 ± 0.00305 nM.
Work on CC[C@H](C)[C@H](NC(=O)[C@H](C)NC(=O)[C@H](CC(=O)O)NC(=O)[C@H](CC(=O)O)NC(=O)[C@@H]1CCCN1C(=O)[C@@H](NC(=O)[C@H](CCC(=O)O)NC(=O)[C@H](CCC(=O)O)NC(=O)[C@H](Cc1ccccc1)NC(=O)[C@H](CC(=O)O)NC(=O)CNC(=O)[C@@H]1CCCN1C(=O)[C@@H]1CCCN1C(=O)[C@H](C)NC(=O)[C@@H](NC(=O)[C@H](CCCCN)NC(=O)[C@H](Cc1c[nH]cn1)NC(=O)[C@H](CCSC)NC(=O)[C@H](CCCCN)NC(=O)[C@@H]1CCCN1C(=O)[C@H](CCC(=O)O)NC(=O)[C@H](C)NC(=O)[C@H](CCCNC(=N)N)NC(=O)[C@@H](NC(=O)[C@H](C)NC(=O)[C@H](CCC(=O)O)NC(=O)[C@H](CC(=O)O)NC(=O)[C@@H](N)CO)C(C)C)[C@@H](C)O)[C@@H](C)CC)C(=O)N[C@@H](CCC(=O)O)C(=O)N[C@@H](CCC(=O)O)C(=O)O [UV004] (H-SDEAVRAEPKMHKTAPPGDFEEIPDDAIEE-OH) yielded an IC50 [1] of 0.46 ± 0.08 nM and a Ki [2] of 0.00455 ± 0.00037 nM.
“SDVAPADYESDEGDNDGGHDGSEVAKPKMPRGNGGGGDFEEIPEVE [Rhipicephalus sanguineus]” gave an IC50 (Table 4, members of variegin family, read-out: IC50) of 42.4 ± 0.62 nM and a Ki (thrombin 0.81 nM, read-out: inhibitory constant Ki for thrombin) of 8.79 ± 0.65 nM.
In the case of CC[C@H](C)[C@H](NC(=O)[C@H](CCCCN)NC(=O)[C@@H]1CCCN1C(=O)[C@@H](NC(=O)[C@H](C)NC(=O)[C@@H](NC(=O)[C@H](CCC(N)=O)NC(=O)[C@H](Cc1c[nH]cn1)NC(=O)CNC(=O)CNC(=O)[C@@H](N)CO)[C@@H](C)O)C(C)C)C(=O)N[C@@H](C)C(=O)N[C@@H](CCCCN)C(=O)N[C@@H](CCC(N)=O)C(=O)NCC(=O)N[C@@H](CC(C)C)C(=O)NCC(=O)NCC(=O)N[C@@H](CC(=O)O)C(=O)N[C@@H](Cc1ccccc1)C(=O)N[C@@H](CCC(=O)O)C(=O)N[C@@H](CCC(=O)O)C(=O)N[C@H](C(=O)N1CCC[C@H]1C(=O)N[C@@H](CO)C(=O)N[C@@H](CC(=O)O)C(=O)N[C@@H](CCC(=O)O)C(=O)N[C@H](C(=O)N[C@H](C(=O)N[C@@H](CCC(=O)O)C(=O)O)[C@@H](C)CC)[C@@H](C)CC)[C@@H](C)CC [Peptide S12A] (H-SGGHQTAVPKIAKQGLGGDFEEIPSDEIIE-OH; N-terminus and C-terminus assumed), the “fold drop in potency” value is reported as > 10 fold and 20 fold, the “Hill slope of thrombin amidolytic inhibition” value is reported as 0.62±0.01 and the IC50 [1] is reported as 101 ± 1.32 nM. For the same compound, the “Hill Slope” value was 0.62 ± 0.01 and the Ki [2] was 6.07 ± 0.18 nM.
With CC[C@H](C)[C@H](NC(=O)[C@H](CCC(=O)O)NC(=O)[C@H](CC(=O)O)NC(=O)[C@H](CC(=O)O)NC(=O)[C@@H]1CCCN1C(=O)[C@@H](NC(=O)[C@H](CCC(=O)O)NC(=O)[C@H](CCC(=O)O)NC(=O)[C@H](Cc1ccccc1)NC(=O)[C@H](CC(=O)O)NC(=O)CNC(=O)[C@@H]1CCCN1C(=O)[C@@H]1CCCN1C(=O)[C@H](C)NC(=O)[C@@H](NC(=O)[C@H](CO)NC(=O)[C@H](Cc1ccc(O)cc1)NC(=O)[C@H](CCSC)NC(=O)[C@H](CCCCN)NC(=O)[C@@H]1CCCN1C(=O)[C@@H](NC(=O)[C@H](C)NC(=O)[C@H](CCCNC(=N)N)NC(=O)[C@@H](NC(=O)[C@H](C)NC(=O)[C@H](CCC(=O)O)NC(=O)[C@H](CC(=O)O)NC(=O)[C@@H](N)CO)C(C)C)[C@@H](C)CC)[C@@H](C)O)[C@@H](C)CC)C(=O)N[C@@H](CCC(=O)O)C(=O)N[C@@H](CCC(=O)O)C(=O)O [UV012] (H-SDEAVRAIPKMYSTAPPGDFEEIPDDEIEE-OH; N-terminus and C-terminus assumed) the “fold drop in affinity for thrombin compared to ultravariegin” value was 5 fold.
